By IC50 is commonly meant the concentration that gives 50% inhibition. High values mean a need for much substance, low ones inhibition by little substance.

The target of the assay is TNAP (Homo sapiens (Human), UniProt P05186). The assay can be described thus: TNAP (PPi) inhibition assay, pyrophosphate as substrate. The class given is biochemical. The method, then:
Expression plasmids containing a secreted epitope-tagged TNAP were transfected into COS-1 cells for transient expression. The medium was replaced with Opti-MEM 24 h later and serum-free media containing secreted proteins was collected 60 hours after electroporation. The medium was dialyzed against TBS containing 1 mM MgCl2 and […] (to remove phosphate) and filtered through a […] cellulose acetate filter.
To determine the inhibition selectivity for inhibitor candidates, human TNAP, PLAP or IAP were added to microtiter plates followed by addition of the substrate pNPP (0.5 mM) and activity was measured in 1 M DEA-HCl buffer, pH 9.8 or in 1 M Tris-HCl buffer, pH 7.5, containing 1 mM MgCl2 and 20 μM ZnCl2, in the presence of potential inhibitors (0-30 μM). TNAP, PLAP and IAP activities were adjusted to an approximate λA405 nm, equivalent to 1, measured after 30 min. Residual AP activity in the presence of inhibitors was expressed as percentage of the control activity. To investigate the mechanism of inhibition, double reciprocal plots of enzyme activity (expressed as mA405 nm min−1) vs. substrate concentration were constructed, in the presence of various concentrations of added inhibitors (0-30 μM). The y-axis intercepts of the 1/v vs. 1/[S] plots, were then plotted vs. [I] to graphically extract Ki values as the x-intercept in this plot. […] Inhibitors were further tested and sorted based on their kinetic properties at pH 7.4 using PPi, the relevant natural substrate of TNAP. […] Amounts of released phosphate were measured using the Biomol Green Reagent (Biomol Research Laboratories, Inc., Plymouth Meeting, Pa.).

Each structure is given as a SMILES string.

For `COc1cc(Cl)c(Br)cc1S(=O)(=O)Nc1cccnc1`, the IC50 is less than 100 nM.

`COc1ccc(Br)cc1S(=O)(=O)Nc1cscn1` had a 50% inhibitory concentration (IC50) greater than 1000 nM.

Compound `COc1ccc(OC)c(S(=O)(=O)Nc2cscn2)c1` registered an IC50 greater than 1000 nM.

The compound `COc1ccc(Cl)cc1S(=O)(=O)Nc1cncc(-c2ccccc2C(F)(F)F)c1` displayed an IC50 of 100 to 1000 nM.

`COc1ccc(Cl)cc1S(=O)(=O)Nc1cncc(-c2ccc(O)cc2)c1` displayed an IC50 of less than 100 nM.

Take `COc1ccc(OC)c(S(=O)(=O)Nc2ccc(Nc3ccccc3)nc2)c1`: the IC50 was greater than 1000 nM.

Compound `O=C(O)c1cncc(NS(=O)(=O)c2cc(Cl)ccc2OC(F)(F)F)c1` showed a concentration for half-maximal inhibition (IC50) of 100 to 1000 nM.

`COc1ccc(-c2ccccc2)cc1S(=O)(=O)Nc1cccnc1` [Example I-7, 4-Methoxy-biphenyl-3-sulfonic acid pyridin-3-ylamide] displayed an IC50 of 100 to 1000 nM.

Take `COc1ccc(-c2ccsc2)cc1S(=O)(=O)Nc1cccnc1` [Example I-8, 2-Methoxy-N-pyridin-3-yl-5-thiophen-3-yl-benzenesulfonamide]: the IC50 fell in the range of 100 to 1000 nM.

Compound `COc1ccc(-c2ccoc2)cc1S(=O)(=O)Nc1cccnc1` [Example I-9, 5-Furan-3-yl-2-methoxy-N-pyridin-3-yl-benzenesulfonamide] displayed an IC50 of 100 to 1000 nM.

As to `COc1ccc(-c2ccncc2)cc1S(=O)(=O)Nc1cccnc1` [Example I-10, 2-Methoxy-5-pyridin-4-yl-N-pyridin-3-yl-benzenesulfonamide], the IC50 is greater than 1000 nM.

In turn, `COc1ccc(S(=O)(=O)Nc2cccnc2)cc1Cl` [Example I-12, 3-Chloro-4-methoxy-N-pyridin-3-yl-benzenesulfonamide] yielded an IC50 greater than 1000 nM.

On to `COc1c(Cl)cccc1S(=O)(=O)Nc1cccnc1` [Example I-13, 3-Chloro-2-methoxy-N-pyridin-3-yl-benzenesulfonamide], for which the IC50 is greater than 1000 nM.

`CNC(=O)c1ccc(OC)c(S(=O)(=O)Nc2cccnc2)c1` [Example I-16, 4-Methoxy-N-methyl-3-(pyridin-3-ylsulfamoyl)-benzamide] registered an IC50 greater than 1000 nM.

Take `CCNC(=O)c1ccc(OC)c(S(=O)(=O)Nc2cccnc2)c1` [Example I-17, N-Ethyl-4-methoxy-3-(pyridin-3-ylsulfamoyl)-benzamide]: the concentration for half-maximal inhibition (IC50) was greater than 1000 nM.

In turn, `CCCNC(=O)c1ccc(OC)c(S(=O)(=O)Nc2cccnc2)c1` [Example I-18, 4-Methoxy-N-propyl-3-(pyridin-3-ylsulfamoyl)-benzamide] came in with an IC50 greater than 1000 nM.

`COc1ccc(C(=O)Nc2ccccc2)cc1S(=O)(=O)Nc1cccnc1` [Example I-19, 4-Methoxy-N-phenyl-3-(pyridin-3-ylsulfamoyl)-benzamide] displayed a half-maximal inhibitory concentration (IC50) greater than 1000 nM.

As for `COc1ccc(C(=O)NC2CCCCC2)cc1S(=O)(=O)Nc1cccnc1` [Example I-20, N-Cyclohexyl-4-methoxy-3-(pyridin-3-ylsulfamoyl)-benzamide], the IC50 was greater than 1000 nM.

As for `COCCNC(=O)c1ccc(OC)c(S(=O)(=O)Nc2cccnc2)c1` [Example I-21, 4-Methoxy-N-(2-methoxy-ethyl)-3-(pyridin-3-ylsulfamoyl)-benzamide], the IC50 was greater than 1000 nM.

For `COc1ccc(C(=O)N2CCN(C)CC2)cc1S(=O)(=O)Nc1cccnc1` [Example I-22, 2-Methoxy-5-(4-methyl-piperazine-1-carbonyl)-N-pyridin-3-yl-benzenesulfonamide], the IC50 was greater than 1000 nM.

The compound `COc1ccc(C(=O)N2CCOCC2)cc1S(=O)(=O)Nc1cccnc1` [Example I-23, 2-Methoxy-5-(morpholine-4-carbonyl)-N-pyridin-3-yl-benzenesulfonamide] yielded an IC50 greater than 1000 nM.

`COc1cc(C)ccc1S(=O)(=O)Nc1cnc2ccccc2c1` [Example II-3, 2-Methoxy-4-methyl-N-quinolin-3-yl-benzenesulfonamide] yielded an IC50 of less than 100 nM.

In the case of `COc1ccc(S(=O)(=O)Nc2cnc3ccccc3c2)c(OC)c1` [Example II-4, 2,4-Dimethoxy-N-quinolin-3-yl-benzenesulfonamide], the half-maximal inhibitory concentration (IC50) was greater than 1000 nM.

Take `COc1ccc(-c2ccccc2)cc1S(=O)(=O)Nc1cnc2ccccc2c1` [Example II-6, 4-Methoxy-biphenyl-3-sulfonic acid quinolin-3-ylamide]: the half-maximal inhibitory concentration (IC50) lay in the range of 100 to 1000 nM.

As for `COc1ccc(-c2ccoc2)cc1S(=O)(=O)Nc1cnc2ccccc2c1` [Example II-7, 5-Furan-3-yl-2-methoxy-N-quinolin-3-yl-benzenesulfonamide], the IC50 lay within 100 to 1000 nM.

The compound `COc1ccc(-c2ccsc2)cc1S(=O)(=O)Nc1cnc2ccccc2c1` [Example II-8, 2-Methoxy-N-quinolin-3-yl-5-thiophen-3-yl-benzenesulfonamide] registered an IC50 greater than 1000 nM.

Turning to `COc1ccc(-c2ccncc2)cc1S(=O)(=O)Nc1cnc2ccccc2c1` [Example II-9, 2-Methoxy-5-pyridin-4-yl-N-quinolin-3-yl-benzenesulfonamide], the IC50 lay within 100 to 1000 nM.

`COc1cc(Cl)ccc1S(=O)(=O)Nc1cnc2ccccc2c1` [Example II-10, 4-Chloro-2-methoxy-N-quinolin-3-yl-benzenesulfonamide] came in with an IC50 of less than 100 nM.

The compound `COc1ccc(S(=O)(=O)Nc2cnc3ccccc3c2)cc1Cl` [Example II-11, 3-Chloro-4-methoxy-N-quinolin-3-yl-benzenesulfonamide] came in with an IC50 greater than 1000 nM.

In turn, `COc1c(Cl)cccc1S(=O)(=O)Nc1cnc2ccccc2c1` [Example II-12, 3-Chloro-2-methoxy-N-quinolin-3-yl-benzenesulfonamide] registered an IC50 greater than 1000 nM.

The compound `COC(=O)c1ccc(OC)c(S(=O)(=O)Nc2cnc3ccccc3c2)c1` [Example II-13, Methyl 4-methoxy-3-(N-(quinolin-3-yl)sulfamoyl)benzoate] showed an IC50 of less than 100 nM.

`COc1ccc(C(N)=O)cc1S(=O)(=O)Nc1cnc2ccccc2c1` [Example II-14, 4-Methoxy-3-(quinolin-3-ylsulfamoyl)-benzamide]: the 50% inhibitory concentration (IC50) lay within 100 to 1000 nM.

With `CNC(=O)c1ccc(OC)c(S(=O)(=O)Nc2cnc3ccccc3c2)c1` [Example II-15, 4-Methoxy-N-methyl-3-(quinolin-3-ylsulfamoyl)-benzamide], the IC50 was less than 100 nM.

On to `CCNC(=O)c1ccc(OC)c(S(=O)(=O)Nc2cnc3ccccc3c2)c1` [Example II-16, N-Ethyl-4-methoxy-3-(quinolin-3-ylsulfamoyl)-benzamide], for which the half-inhibitory concentration (IC50) is 100 to 1000 nM.

Regarding `CCCNC(=O)c1ccc(OC)c(S(=O)(=O)Nc2cnc3ccccc3c2)c1` [Example II-17, 4-Methoxy-N-propyl-3-(quinolin-3-ylsulfamoyl)-benzamide], the half-inhibitory concentration (IC50) lay in the range of 100 to 1000 nM.

For the compound `COc1ccc(C(=O)Nc2ccccc2)cc1S(=O)(=O)Nc1cnc2ccccc2c1` [Example II-18, 4-Methoxy-N-phenyl-3-(quinolin-3-ylsulfamoyl)-benzamide], the concentration for half-maximal inhibition (IC50) is greater than 1000 nM.

Regarding `COc1ccc(C(=O)NC2CCCCC2)cc1S(=O)(=O)Nc1cnc2ccccc2c1` [Example II-19, N-Cyclohexyl-4-methoxy-3-(quinolin-3-ylsulfamoyl)-benzamide], the IC50 was greater than 1000 nM.

`COCCNC(=O)c1ccc(OC)c(S(=O)(=O)Nc2cnc3ccccc3c2)c1` [Example II-20, 4-Methoxy-N-(2-methoxy-ethyl)-3-(quinolin-3-ylsulfamoyl)-benzamide]: the 50% inhibitory concentration (IC50) was in the range of 100 to 1000 nM.

`COc1ccc(C(=O)NCCN(C)C)cc1S(=O)(=O)Nc1cnc2ccccc2c1` [Example II-21, N-(2-Dimethylamino-ethyl)-4-methoxy-3-(quinolin-3-ylsulfamoyl)-benzamide] gave an IC50 of 100 to 1000 nM.

`COc1ccc(C(=O)N2CCN(C)CC2)cc1S(=O)(=O)Nc1cnc2ccccc2c1` [Example II-22, 2-Methoxy-5-(4-methyl-piperazine-1-carbonyl)-N-quinolin-3-yl-benzenesulfonamide] returned an IC50 greater than 1000 nM.

As for `COc1ccc(C(=O)N2CCOCC2)cc1S(=O)(=O)Nc1cnc2ccccc2c1` [Example II-23, 2-Methoxy-5-(morpholine-4-carbonyl)-N-quinolin-3-yl-benzenesulfonamide], the IC50 was in the range of 100 to 1000 nM.

For `COc1ccc(-c2cncc(NS(=O)(=O)c3cc(OC)ccc3OC)c2)cc1` [Example III-1], the IC50 was less than 100 nM.

`COc1ccc(-c2cncc(NS(=O)(=O)c3cc(Br)ccc3OC)c2)cc1` [Example III-2, 5-Bromo-2-methoxy-N-[5-(4-methoxy-phenyl)-pyridin-3-yl]-benzenesulfonamide] had an IC50 of 100 to 1000 nM.

With `COc1ccc(OC)c(S(=O)(=O)Nc2cncc(-c3ccc(OCc4ccccc4)cc3)c2)c1` [Example III-4, N-(5-(4-(Benzyloxy)phenyl)pyridin-3-yl)-2,5-dimethoxybenzenesulfonamide], the IC50 fell in the range of 100 to 1000 nM.

With `COc1ccc(Br)cc1S(=O)(=O)Nc1cncc(-c2ccc(OCc3ccccc3)cc2)c1` [Example III-5, N-(5-(4-(Benzyloxy)phenyl)pyridin-3-yl)-5-bromo-2-methoxybenzenesulfonamide], the IC50 lay within 100 to 1000 nM.

Consider `COc1ccc(Cl)cc1S(=O)(=O)Nc1cncc(-c2ccc(OCc3ccccc3)cc2)c1` [Example III-6, N-(5-(4-(benzyloxy)phenyl)pyridin-3-yl)-5-chloro-2-methoxybenzenesulfonamide], for which the IC50 fell in the range of 100 to 1000 nM.

(Values after patent US10370333B2 (Sanford Burnham Prebys Medical Discovery Institute, priority 2012, dated 2019).)
